Like-named read-outs stand apart in the source and are kept apart here.
Experiment: Rat tissue distribution 15 min after intravenous bolus
Format: in vivo
Conditions: rats; for Kp at 15 min: Sprague-Dawley, rat, brain
Protocol: Figure 3 Pharmacokinetic analysis and tissue distribution of PCiv. (A) Pharmacokinetic analysis of blood PCiv levels at each indicated time point following intravenous or oral administration of PCiv (10 mg/kg) determined by ultra-performance liquid chromatography (n = 4 rats for oral and 5 rats for intravenous administration). (B) Quantification of PCiv levels in each indicated tissue (ng/g tissue weight) determined by ultra-performance liquid chromatography (n = 3 rats, tissues collected 15 min after intravenous PCiv administration (10 mg/kg). PCiv was dissolved in a vehicle (DMSO:PEG400:saline ratio of 5:70:25) for solubilization. The quantified data are expressed as means ± standard deviations.
In vivo rat pharmacokinetic studies were performed for intravenous and oral administration of PCiv as previously reported. Sprague-Dawley rats (8 weeks old, 260–280 g) were purchased from Orient Bio Inc. (Seongnam, Korea). Rats were maintained with free access to food and water under a 12:12 h light/dark cycle for 1 week. For pharmacokinetic studies, under anesthetic conditions (20 mg/kg tiletamine/zolazepam [Zoletil; Vibrac Laboratories, Carros, France] administered intramuscularly), the femoral vein and artery were surgically cannulated using polyethylene tubing (PE50; Clay Adams, Parsippany, NJ, USA) in fasted rats. Then, PCiv was administered intravenously and orally at a dose of 10 mg/kg (n = 4–5). The drug was dissolved in a vehicle (DMSO:PEG400:saline at a ratio of 5:70:25). Blood samples (approximately 100 μL) were collected at predetermined time points (0, 1, 5 (intravenous administration only), 15, 30, 60, 120, 180, 240, 360, and 480 min) after drug administration. […] The PCiv level was determined using a CapcellpakTM C18 5 μm column (250 × 1.5 mm, Shiseido Fine Chemical Co., Tokyo, Japan), as previously described. […] The tissue concentration levels were calculated as the PCiv amount (ng) per gram of organ weight.

Q: With `C/C=C(\C)C(=O)O[C@H]1[C@H](OC(C)=O)c2c(ccc3ccc(=O)oc23)OC1(C)C` (relative stereo) [PCiv, trans-4′-acetyl-3′-tigloylkhellactone] as the compound, how does the Kp at 15 min (15 min after intravenous 10 mg/kg, read-out: brain tissue-to-plasma concentration ratio) read?
A: Its Kp at 15 min is 6.4.

Q: And the Kp at 15 min (intravenous, 10 mg/kg, read-out: distribution to target organ compared with the plasma concentration)?
A: Its Kp at 15 min is 6.4.

Q: What about the “tissue-to-plasma concentration ratio, liver and kidneys” value (15 min after intravenous 10 mg/kg) of the same compound?
A: Its value is “low”.
